{"source": "patent US11331299B2", "about": "“Medicinal use of serrulatane diterpenes” (The University of Sydney, priority 2016, dated 2022)", "tested_on": "280 human cancer cell lines", "test": "OncoPanel cell proliferation assay (10-day)", "assay_type": "cell-based", "details": "Homo sapiens; for EC50: read-out: Cell Count EC50; for GI50: read-out: Cell Count GI50; for IC50: read-out: Cell Count IC50", "key": {"[1]": {"details": "C-4-II, C-4 II, Female GU - Cervix"}, "[2]": {"details": "C-33-A, C-33A, Female GU - Cervix"}, "[3]": {"details": "CAL-62, CAL-62, Endocrine - Thyroid"}, "[4]": {"details": "CCF-STTG1, CCF-STTG1, CNS - Glioma"}, "[5]": {"details": "CGTH-W-1, CGTH-W-1, Endocrine - Thyroid"}, "[6]": {"details": "CHP-212, CHP-212, CNS - Neuroblastoma"}, "[7]": {"details": "COLO-320-HSR, Colo 320 HSR, Colon"}, "[8]": {"details": "COLO-829, COLO 829, Skin (Melanoma)"}, "[9]": {"details": "COR-L105, COR-L105, Lung - NSCLC"}, "[10]": {"details": "Ca-Ski, Ca Ski, Female GU - Ovary"}}, "note": "Like-named read-outs stand apart in the source and are kept apart here.", "data": [{"smiles": "CC(C)=CCC[C@H](CO)[C@@H]1CC[C@@H](C)c2c1cc(C)c(O)c2O", "note": "[Compound 1, 7,8,18-trihydroxyserrulat-14-ene]", "values": [{"measurement": "EC50", "setting": "BT-474, BT474, Breast", "value": 5.41, "unit": "µM"}, {"measurement": "GI50", "setting": "BT-474, BT474, Breast", "value": 4.95, "unit": "µM"}, {"measurement": "IC50", "setting": "BT-474, BT474, Breast", "value": 5.46, "unit": "µM"}, {"measurement": "EC50", "setting": "BT-549, BT-549, Breast", "value": 3.14, "unit": "µM"}, {"measurement": "GI50", "setting": "BT-549, BT-549, Breast", "value": 3.12, "unit": "µM"}, {"measurement": "IC50", "setting": "BT-549, BT-549, Breast", "value": 3.14, "unit": "µM"}, {"measurement": "EC50", "setting": "BV-173, BV-173, Leukemia", "value": 3.8, "unit": "µM"}, {"measurement": "GI50", "setting": "BV-173, BV-173, Leukemia", "value": 3.79, "unit": "µM"}, {"measurement": "IC50", "setting": "BV-173, BV-173, Leukemia", "value": 3.8, "unit": "µM"}, {"measurement": "EC50", "setting": "BXPC-3, BxPC-3, Pancreas", "value": 3.29, "unit": "µM"}, {"measurement": "GI50", "setting": "BXPC-3, BxPC-3, Pancreas", "value": 3.29, "unit": "µM"}, {"measurement": "IC50", "setting": "BXPC-3, BxPC-3, Pancreas", "value": 3.3, "unit": "µM"}, {"measurement": "EC50", "setting": "BeWo, Placenta", "value": 9.06, "unit": "µM"}, {"measurement": "GI50", "setting": "BeWo, Placenta", "value": 8.92, "unit": "µM"}, {"measurement": "IC50", "setting": "BeWo, Placenta", "value": 9.06, "unit": "µM"}, {"measurement": "EC50", "setting": "C32, Skin (Melanoma)", "value": 2.11, "unit": "µM"}, {"measurement": "GI50", "setting": "C32, Skin (Melanoma)", "value": 1.81, "unit": "µM"}, {"measurement": "IC50", "setting": "C32, Skin (Melanoma)", "value": 2.11, "unit": "µM"}, {"measurement": "EC50", "setting": "[1]", "value": 1.09, "unit": "µM"}, {"measurement": "GI50", "setting": "[1]", "value": 1.09, "unit": "µM"}, {"measurement": "IC50", "setting": "[1]", "value": 1.1, "unit": "µM"}, {"measurement": "EC50", "setting": "[2]", "value": 7.18, "unit": "µM"}, {"measurement": "GI50", "setting": "[2]", "value": 7.08, "unit": "µM"}, {"measurement": "IC50", "setting": "[2]", "value": 7.18, "unit": "µM"}, {"measurement": "EC50", "setting": "CA46, CA46, Lymphoma", "value": 2.27, "unit": "µM"}, {"measurement": "GI50", "setting": "CA46, CA46, Lymphoma", "value": 2.26, "unit": "µM"}, {"measurement": "IC50", "setting": "CA46, CA46, Lymphoma", "value": 2.27, "unit": "µM"}, {"measurement": "EC50", "setting": "CAKI-1, Caki-1, Kidney", "value": 2.86, "unit": "µM"}, {"measurement": "GI50", "setting": "CAKI-1, Caki-1, Kidney", "value": 2.75, "unit": "µM"}, {"measurement": "IC50", "setting": "CAKI-1, Caki-1, Kidney", "value": 2.86, "unit": "µM"}, {"measurement": "EC50", "setting": "CAKI-2, Caki-2, Kidney", "value": 4.38, "unit": "µM"}, {"measurement": "GI50", "setting": "CAKI-2, Caki-2, Kidney", "value": 4.35, "unit": "µM"}, {"measurement": "IC50", "setting": "CAKI-2, Caki-2, Kidney", "value": 4.38, "unit": "µM"}, {"measurement": "EC50", "setting": "CAL-27, Cal 27, Head and Neck", "value": 2.16, "unit": "µM"}, {"measurement": "GI50", "setting": "CAL-27, Cal 27, Head and Neck", "value": 2.15, "unit": "µM"}, {"measurement": "IC50", "setting": "CAL-27, Cal 27, Head and Neck", "value": 2.16, "unit": "µM"}, {"measurement": "EC50", "setting": "[3]", "value": 1.69, "unit": "µM"}, {"measurement": "GI50", "setting": "[3]", "value": 1.69, "unit": "µM"}, {"measurement": "IC50", "setting": "[3]", "value": 1.69, "unit": "µM"}, {"measurement": "EC50", "setting": "CAMA-1, CAMA-1, Breast", "value": 3.51, "unit": "µM"}, {"measurement": "GI50", "setting": "CAMA-1, CAMA-1, Breast", "value": 3.4, "unit": "µM"}, {"measurement": "IC50", "setting": "CAMA-1, CAMA-1, Breast", "value": 3.51, "unit": "µM"}, {"measurement": "EC50", "setting": "CAPAN-1, Capan-1, Pancreas", "value": "> 30", "unit": "µM"}, {"measurement": "GI50", "setting": "CAPAN-1, Capan-1, Pancreas", "value": "> 30", "unit": "µM"}, {"measurement": "IC50", "setting": "CAPAN-1, Capan-1, Pancreas", "value": "> 30", "unit": "µM"}, {"measurement": "EC50", "setting": "[4]", "value": 5.79, "unit": "µM"}, {"measurement": "GI50", "setting": "[4]", "value": 5.24, "unit": "µM"}, {"measurement": "IC50", "setting": "[4]", "value": 6.6, "unit": "µM"}, {"measurement": "EC50", "setting": "CCRF-CEM, CCRFCEM, Leukemia", "value": 4.73, "unit": "µM"}, {"measurement": "GI50", "setting": "CCRF-CEM, CCRFCEM, Leukemia", "value": 4.71, "unit": "µM"}, {"measurement": "IC50", "setting": "CCRF-CEM, CCRFCEM, Leukemia", "value": 4.73, "unit": "µM"}, {"measurement": "EC50", "setting": "CEM/C1, CEM-C1, Leukemia", "value": 1.96, "unit": "µM"}, {"measurement": "GI50", "setting": "CEM/C1, CEM-C1, Leukemia", "value": 1.95, "unit": "µM"}, {"measurement": "IC50", "setting": "CEM/C1, CEM-C1, Leukemia", "value": 1.96, "unit": "µM"}, {"measurement": "EC50", "setting": "CFPAC-1, CFPAC-1, Pancreas", "value": 3.65, "unit": "µM"}, {"measurement": "GI50", "setting": "CFPAC-1, CFPAC-1, Pancreas", "value": 3.65, "unit": "µM"}, {"measurement": "IC50", "setting": "CFPAC-1, CFPAC-1, Pancreas", "value": 3.66, "unit": "µM"}, {"measurement": "EC50", "setting": "[5]", "value": 1.2, "unit": "µM"}, {"measurement": "GI50", "setting": "[5]", "value": 1.2, "unit": "µM"}, {"measurement": "IC50", "setting": "[5]", "value": 1.2, "unit": "µM"}, {"measurement": "EC50", "setting": "CHL-1, CHL-1, Skin (Melanoma)", "value": 1.37, "unit": "µM"}, {"measurement": "GI50", "setting": "CHL-1, CHL-1, Skin (Melanoma)", "value": 1.36, "unit": "µM"}, {"measurement": "IC50", "setting": "CHL-1, CHL-1, Skin (Melanoma)", "value": 1.37, "unit": "µM"}, {"measurement": "EC50", "setting": "[6]", "value": 1.43, "unit": "µM"}, {"measurement": "GI50", "setting": "[6]", "value": 1.41, "unit": "µM"}, {"measurement": "IC50", "setting": "[6]", "value": 1.43, "unit": "µM"}, {"measurement": "EC50", "setting": "CML-T1, CML-T1, Leukemia", "value": 1.93, "unit": "µM"}, {"measurement": "GI50", "setting": "CML-T1, CML-T1, Leukemia", "value": 1.93, "unit": "µM"}, {"measurement": "IC50", "setting": "CML-T1, CML-T1, Leukemia", "value": 1.93, "unit": "µM"}, {"measurement": "EC50", "setting": "COLO 201, Colo 201, Colon", "value": 0.92, "unit": "µM"}, {"measurement": "GI50", "setting": "COLO 201, Colo 201, Colon", "value": 0.92, "unit": "µM"}, {"measurement": "IC50", "setting": "COLO 201, Colo 201, Colon", "value": 0.92, "unit": "µM"}, {"measurement": "EC50", "setting": "COLO 205, Colo 205, Colon", "value": 1.31, "unit": "µM"}, {"measurement": "GI50", "setting": "COLO 205, Colo 205, Colon", "value": 1.31, "unit": "µM"}, {"measurement": "IC50", "setting": "COLO 205, Colo 205, Colon", "value": 1.31, "unit": "µM"}, {"measurement": "EC50", "setting": "COLO 320DM, Colon", "value": 3.2, "unit": "µM"}, {"measurement": "GI50", "setting": "COLO 320DM, Colon", "value": 3.18, "unit": "µM"}, {"measurement": "IC50", "setting": "COLO 320DM, Colon", "value": 3.2, "unit": "µM"}, {"measurement": "EC50", "setting": "[7]", "value": 3.09, "unit": "µM"}, {"measurement": "GI50", "setting": "[7]", "value": 3.13, "unit": "µM"}, {"measurement": "IC50", "setting": "[7]", "value": 3.13, "unit": "µM"}, {"measurement": "EC50", "setting": "[8]", "value": 0.68, "unit": "µM"}, {"measurement": "GI50", "setting": "[8]", "value": 0.62, "unit": "µM"}, {"measurement": "IC50", "setting": "[8]", "value": 0.68, "unit": "µM"}, {"measurement": "EC50", "setting": "COR-L23, COR-L23, Lung - NSCLC", "value": 7.18, "unit": "µM"}, {"measurement": "GI50", "setting": "COR-L23, COR-L23, Lung - NSCLC", "value": 7.14, "unit": "µM"}, {"measurement": "IC50", "setting": "COR-L23, COR-L23, Lung - NSCLC", "value": 7.18, "unit": "µM"}, {"measurement": "EC50", "setting": "[9]", "value": 1.44, "unit": "µM"}, {"measurement": "GI50", "setting": "[9]", "value": 1.42, "unit": "µM"}, {"measurement": "IC50", "setting": "[9]", "value": 1.45, "unit": "µM"}, {"measurement": "EC50", "setting": "CRO-AP2, CRO-AP2, Lymphoma", "value": 5.72, "unit": "µM"}, {"measurement": "GI50", "setting": "CRO-AP2, CRO-AP2, Lymphoma", "value": 5.66, "unit": "µM"}, {"measurement": "IC50", "setting": "CRO-AP2, CRO-AP2, Lymphoma", "value": 5.72, "unit": "µM"}, {"measurement": "EC50", "setting": "[10]", "value": 5.28, "unit": "µM"}, {"measurement": "GI50", "setting": "[10]", "value": 5.24, "unit": "µM"}, {"measurement": "IC50", "setting": "[10]", "value": 5.29, "unit": "µM"}, {"measurement": "EC50", "setting": "Calu-1, Calu1, Lung - NSCLC", "value": 3.1, "unit": "µM"}, {"measurement": "GI50", "setting": "Calu-1, Calu1, Lung - NSCLC", "value": 3.07, "unit": "µM"}, {"measurement": "IC50", "setting": "Calu-1, Calu1, Lung - NSCLC", "value": 3.1, "unit": "µM"}, {"measurement": "EC50", "setting": "Calu-6, Calu6, Lung - NSCLC", "value": 9.24, "unit": "µM"}, {"measurement": "GI50", "setting": "Calu-6, Calu6, Lung - NSCLC", "value": 8.59, "unit": "µM"}]}]}
